One experiment deals with T1, CDK2/CycE (Homo sapiens, UniProt P24941).
T1 construct: purchased ProQinase GmbH (Freiburg, Germany); host or cells: insect cells (Sf9)
Description: CDK2/CycE kinase assay (TR-FRET, 2 mM ATP). Format: biochemical. Conditions: 2 mM ATP (high ATP); median; read-out: CDK2/CyclinE, 2 mM ATP (high ATP), IC50 (median). From the text: CDK2/CycE-inhibitory activity of compounds of the present invention was quantified employing the CDK2/CycE TR-FRET assay as described in the following paragraphs.
Recombinant fusion proteins of GST and human CDK2 and of GST and human CycE, expressed in insect cells (Sf9) and purified by Glutathion-Sepharose affinity chromatography, were purchase from ProQinase GmbH (Freiburg, Germany). As substrate for the kinase reaction biotinylated peptide biotin-Ttds-YISPLKSPYKISEG (C-terminus in amid form) was used which can be purchased e.g. form the company JERINI peptide technologies (Berlin, Germany).
For the assay 50 nanoL of a 100 fold concentrated solution of the test compound in DMSO was pipetted into a black low volume 384 well microtiter plate or a black 1536 well microtiter plate (both Greiner Bio-One, Frickenhausen, Germany), 2 microL of a solution of CDK2/CycE in aqueous assay buffer [50 millimol/L Tris/HCl pH 8.0, 10 millimol/L MgCl2, 1.0 millimol/L dithiothreitol, 0.1 millimol/L sodium ortho-vanadate, 0.01% (v/v) Nonidet-P40 (Sigma)] were added and the mixture was incubated for 15 min at 22° C. to allow pre-binding of the test compounds to the enzyme before the start of the kinase reaction. Then the kinase reaction was started by the addition of 3 microL of a solution of adenosine-tri-phosphate (ATP, 3.33 millimol/L=>final conc. in the 5 microL assay volume is 2 millimol/L) and substrate (1.25 micromol/L=>final conc. in the 5 microL assay volume is 0.75 micromol/L) in assay buffer and the resulting mixture was incubated for a reaction time of 25 min at 22° C. The concentration of CDK2/CycE was adjusted depending of the activity of the enzyme lot and was chosen appropriate to have the assay in the linear range, typical concentrations were in the range of 10 ng/ml. The reaction was stopped by the addition of 3 microL of a solution of TR-FRET detection reagents (0.333 micromol/L streptavidine-XL665 [Cisbio Bioassays, Codolet, France] and 1.67 nanomol/L anti-RB(pSer807/pSer8l 1)-antibody from BD Pharmingen [#558389] and 2 nanomol/L LANCE EU-W1024 labeled anti-mouse IgG antibody [Perkin-Elmer, product no. AD0077, as an alternative a Terbium-cryptate-labeled anti-mouse IgG antibody from Cisbio Bioassays can be used]) in an aqueous EDTA-solution (167 millimol/L EDTA, 0.2% (w/v) bovine serum albumin in 100 millimol/L HEPES pH 7.5).
(§1) The resulting mixture was incubated 1 h at 22° C. to allow the formation of complex between the phosphorylated biotinylated peptide and the detection reagents. Subsequently the amount of phosphorylated substrate was evaluated by measurement of the resonance energy transfer from the Eu-chelate to the streptavidine-XL. Therefore, the fluorescence emissions at 620 nm and 665 nm after excitation at 350 nm was measured in a TR-FRET reader, e.g. a Pherastar (BMG Labtechnologies, Offenburg, Germany) or a Viewlux (Perkin-Elmer). The ratio of the emissions at 665 nm and at […] was taken as the measure for the amount of phosphorylated substrate. The data were normalised (enzyme reaction without inhibitor=0% inhibition, all other assay components but no enzyme=100% inhibition).
A general note: In TR-FRET formats the signal depends on donor and acceptor labels being close together.

The next experiment concerns the target CDK12/CycK (Homo sapiens, UniProt Q9NYV4). Description: CDK12/CycK high ATP kinase assay (TR-FRET, 2 mM ATP). Format: biochemical. Conditions: 2 mM ATP (high ATP); median; read-out: CDK12/CyclinK, 2 mM ATP (high ATP), IC50-[mol/l] (median). As for the experimental part: In the context of the present invention, the term “IC50 CDK12 hATP” refers to the IC50 values obtained according to the assay described in this section (2.2) herein below, i.e. the IC50 values for the inhibition of CDK12 at high (2 mM) ATP.
CDK12/CycK-inhibitory activity of compounds of the present invention at 2 millimol/L adenosine-tri-phosphate (ATP) was quantified employing the TR-FRET (TR-FRET=Time Resolved Fluorescence Energy Transfer) based CDK12/CycK activity inhibition assay as described in the following paragraphs.
A complex of human recombinant CDK12 and human recombinant CycK (both N-terminally His-tagged, expression and purification as described above) was used as enzyme. As substrate for the kinase reaction biotinylated peptide biotin-Ahx-KFELLPTPPLSPSRRSGL (C-terminus in amid form) was used which can be purchased e.g. form the company Biosyntan (Berlin-Buch, Germany).
For the assay 50 nanoL of a 100 fold concentrated solution of the test compound in DMSO was pipetted into either a black low volume 384 well microtiter plate or a black 1536 well microtiter plate (both Greiner Bio-One, Frickenhausen, Germany), 2 microL of a solution of CDK12/CycK in aqueous assay buffer [25 millimol/L HEPES pH 7.5, 20 millimol/L MgCl2, 5 millimol/L β-glycerophosphate, 2 millimol/L EGTA, 1.0 millimol/L dithiothreitol, 0.01% (v/v) Nonidet-P40 (Sigma), 0.01% (w/v) bovine serum albumin] were added and the mixture was incubated for 15 min at 22° C. to allow pre-binding of the test compounds to the enzyme before the start of the kinase reaction. Then the kinase reaction was started by the addition of 3 microL of a solution ATP (3.33 millimol/L=>final conc. in the 5 microL assay volume is 2 millimol/L) and substrate (1.67 micromol/L=>final conc. in the 5 microL assay volume is 1 micromol/L) in assay buffer and the resulting mixture was incubated for a reaction time of 60 min at 22° C. The concentration of CDK12/CycK was adjusted depending of the activity of the enzyme lot and was chosen appropriate to have the assay in the linear range, typical concentrations were about 0.75 nanomol/L. The reaction was stopped by the addition of 3 microL of a solution of TR-FRET detection reagents (125 nanomol/L streptavidine-XL665 [Cisbio Bioassays, Codolet, France] and 0.67 nanomol/L anti-Phospho-c-Myc (Ser 62) (E1J4K)-antibody from Cell Signalling [#13748] and 2 nanomol/L LANCE EU-W1024 labeled anti-rabbit IgG antibody [Perkin-Elmer, product no. 0083]) in an aqueous EDTA-solution (133 millimol/L EDTA, 0.27% (w/v) bovine serum albumin in 66.7 millimol/L HEPES pH 7.5).
as §1, with “Pherastar FS” for “Pherastar”

Some results are limits rather than exact numbers.

Chain of CDK12/CycK (Q9NYV4 with tags, fused parts or gaps): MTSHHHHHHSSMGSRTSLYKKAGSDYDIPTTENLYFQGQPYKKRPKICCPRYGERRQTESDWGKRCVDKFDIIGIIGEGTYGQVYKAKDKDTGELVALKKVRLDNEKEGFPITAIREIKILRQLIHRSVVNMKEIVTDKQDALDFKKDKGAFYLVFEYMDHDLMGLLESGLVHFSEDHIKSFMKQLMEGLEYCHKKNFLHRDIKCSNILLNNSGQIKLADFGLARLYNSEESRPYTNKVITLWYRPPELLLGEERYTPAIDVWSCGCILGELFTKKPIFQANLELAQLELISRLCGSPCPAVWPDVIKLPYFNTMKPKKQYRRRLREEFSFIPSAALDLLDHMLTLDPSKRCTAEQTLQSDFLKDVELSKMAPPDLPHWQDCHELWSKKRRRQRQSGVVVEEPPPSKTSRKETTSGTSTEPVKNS
Chain of CDK12/CycK (O75909 1-300 partner limits assumed): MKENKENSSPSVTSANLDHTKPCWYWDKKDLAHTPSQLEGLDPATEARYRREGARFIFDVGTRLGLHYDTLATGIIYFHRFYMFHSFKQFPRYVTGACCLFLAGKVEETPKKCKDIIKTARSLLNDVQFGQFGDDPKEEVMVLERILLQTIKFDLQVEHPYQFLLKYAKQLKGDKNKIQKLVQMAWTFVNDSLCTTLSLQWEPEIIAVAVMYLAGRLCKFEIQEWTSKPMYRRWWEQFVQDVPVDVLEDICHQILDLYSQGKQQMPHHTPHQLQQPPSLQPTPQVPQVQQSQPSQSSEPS

In the case of `CN1CCN(c2nc(NCc3nc4c(F)cccc4[nH]3)n3ncc(Br)c3n2)CC1` [Example 126, 8-bromo-N-[(4-fluoro-1H-benzimidazol-2-yl)methyl]-2-(4-methylpiperazin-1-yl)pyrazolo[1,5-a][1,3,5]triazin-4-amine], the IC50 at CDK2/CycE is 5.99 µM; on CDK12/CycK it was 6.83 µM.

Consider `CN1CCN(c2nc(NCc3nnc(-c4ccccc4)[nH]3)n3ncc(Br)c3n2)CC1=O` [Example 121, 4-(8-bromo-4-{[(5-phenyl-4H-1,2,4-triazol-3-yl)methyl]amino}pyrazolo[1,5-a][1,3,5]triazin-2-yl)-1-methylpiperazin-2-one], for which the IC50 at CDK2/CycE was determined as 2.2 µM; at CDK12/CycK, 7.47 µM.

Consider `Brc1cnn2c(NCc3nnc(-c4ccccc4)[nH]3)nc(N3CCNCC3)nc12.O=CO` [Example 119, 8-bromo-N-[(5-phenyl-4H-1,2,4-triazol-3-yl)methyl]-2-piperazin-1-yl-pyrazolo[1,5-a][1,3,5]triazin-4-amine formate], for which the IC50 at CDK2/CycE was 7.77 µM; on CDK12/CycK, 6.62 µM.

Turning to `N=S1(=O)CCN(c2nc(NCc3nc4ccccc4[nH]3)n3ncc(Br)c3n2)CC1` [Example 145, 4-(4-{[(1H-benzimidazol-2-yl)methyl]amino}-8-bromopyrazolo[1,5-a][1,3,5]triazin-2-yl)-1-imino-1lambda^6-thiomorpholin-1-one], the IC50 stood at 6.14 µM on CDK2/CycE and 12.6 µM on CDK12/CycK.

Take `CC(C)c1cnn2c(NCc3nc4ccccc4[nH]3)nc(N3CC4(COC4)C3)nc12` [Example 9, N-[(1H-benzimidazol-2-yl)methyl]-2-(2-oxa-6-azaspiro[3.3]heptan-6-yl)-8-(propan-2-yl)pyrazolo[1,5-a][1,3,5]triazin-4-amine]: the IC50 at CDK2/CycE is 14.7 µM; at CDK12/CycK, above 20 µM.

For the compound `Brc1cnn2c(NCc3nc4ccccc4[nH]3)nc(N3CCN4CCC[C@@H]4C3)nc12` [Example 149, N-[(1H-benzimidazol-2-yl)methyl]-8-bromo-2-[(8aR)-hexahydropyrrolo[1,2-a]pyrazin-2 (1 H)-yl]pyrazolo[1,5-a][1,3,5]triazin-4-amine], the figures for the IC50 on CDK2/CycE and at CDK12/CycK were 6.38 µM and 6.22 µM, respectively.

Take `Brc1cnn2c(NCc3nc4ccccc4[nH]3)nc(N3C[C@H]4C[C@@H]3CO4)nc12` [Example 102, N-[(1H-benzimidazol-2-yl)methyl]-8-bromo-2-[(1R,4R)-2-oxa-5-azabicyclo[2.2.1]heptan-5-yl]pyrazolo[1,5-a][1,3,5]triazin-4-amine]: the IC50 at CDK2/CycE came out at 2.42 µM; at CDK12/CycK it was 6.92 µM.

For `Brc1cnn2c(NCc3nc4ccccc4[nH]3)nc(N3C[C@@H]4C[C@H]3CO4)nc12` [Example 103, N-[(1H-benzimidazol-2-yl)methyl]-8-bromo-2-[(1S,4S)-2-oxa-5-azabicyclo[2.2.1]heptan-5-yl]pyrazolo[1,5-a][1,3,5]triazin-4-amine], the IC50 on CDK2/CycE was determined as 9.05 µM; at CDK12/CycK, 10.3 µM.

In the case of `Fc1ccc2[nH]c(CNc3nc(N4CCOCC4)nc4c(Br)cnn34)nc2c1` [Example 101, 8-bromo-N-[(5-fluoro-1H-benzimidazol-2-yl)methyl]-2-(morpholin-4-yl)pyrazolo[1,5-a][1,3,5]triazin-4-amine], the IC50 at CDK2/CycE was found to be 3.88 µM; at CDK12/CycK it was 2.25 µM.

Turning to `C[C@@H]1CN(c2nc(NCc3nnc(-c4ccccc4)[nH]3)n3ncc(Br)c3n2)C[C@H](C)N1` [Example 127, 8-bromo-2-[(3R,5S)-3,5-dimethylpiperazin-1-yl]-N-[(5-phenyl-4H-1,2,4-triazol-3-yl)methyl]pyrazolo[1,5-a][1,3,5]triazin-4-amine], the IC50 at CDK2/CycE is above 20 µM; at CDK12/CycK, 9.71 µM.

Consider `OCC1CCN1c1nc(NCc2nc3ccccc3[nH]2)n2ncc(Br)c2n1` (stereo not drawn) [Example 147, [1-[4-(1H-benzimidazol-2-ylmethylamino)-8-bromo-pyrazolo[1,5-a][1,3,5]triazin-2-yl]azetidin-2-yl]methanol], for which the IC50 was determined as 3.12 µM on CDK2/CycE and 4.97 µM at CDK12/CycK.

For the compound `C[C@@H]1CN(c2nc(NCc3nc4ccccc4[nH]3)n3ncc(Br)c3n2)C[C@H](C)N1` [Example 142, N-(1H-benzimidazol-2-ylmethyl)-8-bromo-2-[(3R,5S)-3,5-dimethylpiperazin-1-yl]pyrazolo[1,5-a][1,3,5]triazin-4-amine], the values for the IC50 on CDK2/CycE and at CDK12/CycK were above 19.8 µM and 10.8 µM, respectively.

On to `Brc1cnn2c(NCc3nc4ccccc4[nH]3)nc(N3CCN(C4CC4)CC3)nc12` [Example 138, N-[(1H-benzimidazol-2-yl)methyl]-8-bromo-2-(4-cyclopropylpiperazin-1-yl)pyrazolo[1,5-a][1,3,5]triazin-4-amine], for which the IC50 on CDK2/CycE and at CDK12/CycK was above 20 µM throughout.

For the compound `c1ccc2[nH]c(CNc3nc(N4CCOCC4)nc4c(-c5ccncc5)cnn34)nc2c1` [Example 111, N-[(1H-benzimidazol-2-yl)methyl]-2-(morpholin-4-yl)-8-(pyridin-4-yl)pyrazolo[1,5-a][1,3,5]triazin-4-amine hydrogen chloride (1/1)], the IC50 is above 20 µM on CDK2/CycE and above 1.63 µM on CDK12/CycK.

Regarding `CN1CCN(c2nc(NCc3nc4ccccc4[nH]3)n3ncc(Br)c3n2)C(CO)C1` (stereo not drawn) [Example 155, [1-[4-(1H-benzimidazol-2-ylmethylamino)-8-bromo-pyrazolo[1,5-a][1,3,5]triazin-2-yl]-4-methyl-piperazin-2-yl]methanol], the values for the IC50 on CDK2/CycE and at CDK12/CycK were 9.28 µM and 3.74 µM, respectively.

Values taken from patent US20230117034A1, “PYRAZOLOTRIAZINES” (Bayer Aktiengesellschaft, priority 2019, published 2023).
